Test results as given in patent US11407741B2, “Compounds and their use as selective inhibitors of caspase-2” (priority 2017, dated 2022).
Where a SMILES comes first, the peptide text is derived from it. [ ]: non-standard residue; d: D form. The star is where a group is joined. Pro(3S-CH2tBu) = CC(C)(C)C[C@H]1CCN[C@@H]1C(=O)O; Quinaldoyl = O=C(c1ccc2ccccc2n1)*; X1 = c1ncc(CO*)s1

Tests used:
Caspase-3 = target: T1, Caspase-3 (Homo sapiens, UniProt P42574); test: Caspase-3 inhibition assay for reversible inhibitors (IC50, Ki); assay type: biochemical; settings: compared with Ac-VDVAD-CHO
T1 construct: the Caspase-2 and Caspase-3 are human recombinant active enzymes; purchased R&D Systems 707-C3-010/CF
T1 sequence (P42574 29-175 limits assumed): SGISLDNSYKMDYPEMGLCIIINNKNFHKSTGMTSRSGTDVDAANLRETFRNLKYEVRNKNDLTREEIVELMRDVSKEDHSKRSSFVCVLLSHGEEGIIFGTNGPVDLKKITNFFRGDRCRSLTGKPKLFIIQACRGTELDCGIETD
T1 sequence (P42574 176-277 limits assumed): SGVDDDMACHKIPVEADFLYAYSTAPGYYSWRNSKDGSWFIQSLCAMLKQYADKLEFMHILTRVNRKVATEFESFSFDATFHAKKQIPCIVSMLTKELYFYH
Procedure: (§1) A preliminary step in the characterization of an inhibitor is the determination of its IC50. The IC50 is the necessary concentration of an inhibitor to decrease the enzyme activity by 50% of its maximum and uninhibited value.
(§2) The compound, at different concentrations, is incubated with the enzyme and buffer for 30 minutes at 37° C. to allow formation of the Enzyme-Inhibitor complex. The reaction is initiated by addition of buffer and substrate, and then activity is measured over 15 minutes for the determination of initial velocities.
(§3) The enzyme and the inhibitor (or DMSO as control) are incubated for 30 minutes at 37° C. The complex thus formed is diluted to 100th in the buffer/substrate mixture and then the activity measurement is started over 20 minutes. The initial rate obtained for the DMSO represents the 100% activity and will serve as a reference for the quantification of the residual activity of the enzyme in the presence of the inhibitor.
(§4) The reaction is started over 20 minutes upon addition of the buffer-substrate mixture.
(§5) Initial velocity values in RFU·min^−1 are reduced to Specific Activity (SA)values (pmol/min/μg enzyme) from an AMC standard range (1 RFU→0.02 pmol).
(§6) The evolution of the ratio 1/SA as a function of 1/[S] makes it possible to obtain the so-called double-inverse graph of Lineweaver-Burk from equation 4 (eq.4) where Vmaxapp and KMapp are the parameters which vary according to the type inhibition and as a function of inhibitor concentration. The intersection of the lines obtained for increasing inhibitor concentrations makes it possible to distinguish different types of inhibitors.
A secondary graph, obtained from the values of the slopes of the Lineweaver-Burk plot as a function of the concentration of inhibitor, makes it possible to obtain the value of the Ki. Its value is given by the abscissa point at the origin. […]

Casp-2 = target: T2, Casp-2 (Homo sapiens, UniProt P42575); test: Caspase-2 inhibition assay for reversible inhibitors (IC50, Ki, dilution method); assay type: biochemical
T2 construct: the Caspase-2 and Caspase-3 are human recombinant active enzymes; purchased Enzo Life ALX-201-057-U100
T2 sequence (P42575 170-325 limits assumed): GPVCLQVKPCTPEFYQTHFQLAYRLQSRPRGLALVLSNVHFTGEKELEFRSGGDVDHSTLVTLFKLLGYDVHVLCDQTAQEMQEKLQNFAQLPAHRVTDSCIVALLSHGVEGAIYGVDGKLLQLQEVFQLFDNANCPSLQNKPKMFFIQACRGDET
T2 sequence (P42575 348-452 limits assumed): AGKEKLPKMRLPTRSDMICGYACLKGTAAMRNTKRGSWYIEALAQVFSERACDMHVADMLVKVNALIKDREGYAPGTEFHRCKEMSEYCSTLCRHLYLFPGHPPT
Procedure: as §1, §2, §3, §4, §5, §6
A secondary graph, obtained from the values of the slopes of the Lineweaver-Burk plot as a function of the concentration of inhibitor, makes it possible to obtain the value of the Ki. Its value is given by the abscissa point at the origin.
The initial velocity V0 is expressed from equation 8 (eq.8), where Vmax is the maximum reaction rate (reached when the enzyme is saturated with substrate), [S] the substrate concentration, KM is the Michaelis-Menten constant (substrate concentration corresponding to Vmax/2), Ki is the dissociation constant which accounts for the affinity of the inhibitor for the enzyme.

In the case of `CC(C)[C@H](NC(=O)c1ccc2ccccc2n1)C(=O)N[C@@H](CC(=O)O)C(=O)N[C@H](C(=O)N1CC[C@H](CC(C)(C)C)[C@H]1C(=O)N[C@@H](CC(=O)O)C(=O)OCc1cncs1)C(C)C` [Compound 3, (S)-4-(((S)-1-((2S,3S)-2-(((S)-3-carboxy-1-oxo-1-(thiazol-5 - ylmethoxy)propan-2-yl)carbamoyl)-3-neopenthylpyrrolidin-1-yl)-3-methyl-1-oxobutan-2-yl)amino)-3-((S)-3-methyl-2-(quinoline-2-carboxamido)butanamido)-4-oxobutanoic acid] (Quinaldoyl-VDV[Pro(3S-CH2tBu)]D-X1), the “potency on Caspase-3” value (Caspase-3) is reported as “considerably less potent on Caspase-3 than Ac-VDVAD-CHO”, the “Selectivity Indexes (KiCasp3/KiCasp2)” value (Casp-2) is reported as >>1000 and the “potency on Casp-2” value (Casp-2) is reported as “still powerful on Casp-2”. For the same compound, the “type of inhibition (reversible), dilution method” value (Casp-2) was “reversible inhibitor” and the “Casp-2 selectivity” value (Casp-2; from IC50 on Casp-2 and Caspase-3) was “Casp2-selective”.
